{"source": "patent US11926578B1", "about": "“8-(4-nitroxybenzylideneamino)naphthalene-1,3-disulfonic acid as an antioxidant compound” (KING FAISAL UNIVERSITY, priority 2023, dated 2024)", "experiment": "DPPH radical scavenging antioxidant test (absorbance at 517 nm)", "type": "biochemical", "settings": "radical scavenging inhibition of DPPH, 0.2 mL DPPH (0.75 mM), compound 3 μM in ethanol, 30 min in the dark", "description": "The antioxidant properties of the 8-(4-nitroxybenzylideneamino)naphthalene-1,3-disulfonic acid were studied by adding 0.2 mL DPPH (0.75 mM)) to compound 8-(4-nitroxybenzylideneamino)naphthalene-1,3-disulfonic acid (III) (3 μM) in ethanol. After 30 min of incubation in the dark, the absorbance was read against a blank at 517 nm. Ascorbic acid (vitamin C) was used as standard antioxidants (positive control). A blank sample was prepared by 0.2 ml of DPPH in 3 ml ethanol. A negative control sample was run using ethanol instead of the sample. The radical scavenging inhibition was calculated using the following equation: […]", "data": [{"smiles": "O=C1O[C@H]([C@@H](O)CO)C(O)=C1O", "note": "[vit c, Ascorbic acid]", "values": [{"measurement": "Inhibition", "value": 74, "unit": "%"}]}]}
